Test results published in patent publication EP2951180B1, “2,6,7,8 SUBSTITUTED PURINES AS HDM2 INHIBITORS” (Merck Sharp & Dohme Corp., priority 2013, dated 2014).

biological target: T1, HDM2 (Homo sapiens, UniProt Q00987); assay: HDM2 FRET assay (inhibition of binding of FITC labeled p53-pocket peptide to HDM2); conditions: Table 6; read-out: FRET IC50
T1 construct: Thioredoxin (N); made in house; host or cells: E. coli strain BL21(DE3)Rosetta
Summary of the method: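 Signal is read as the 520/495 nm emission ratio and converted to percent inhibition; nonlinear sigmoidal regression yields IC50. The assay mixes HDM2 (0.5 nM), FITC-p53 peptide (3 nM) and Tb anti-His antibody (0.25 nM) at 0.1% DMSO.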

T1 sequence (Q00987 17-125): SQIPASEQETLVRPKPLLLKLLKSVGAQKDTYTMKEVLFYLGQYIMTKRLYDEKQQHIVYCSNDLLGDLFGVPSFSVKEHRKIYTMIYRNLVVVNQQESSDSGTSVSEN

Row | SMILES | IC50 [nM]
1 | Cc1cccc(-c2nc3nc(C(=O)O)nc(N[C@H](C)C4CCCC4)c3n2Cc2ccc(Cl)cc2)c1 [Example 6.3, 7-(4-chlorobenzyl)-6-{[(1R)-1-cyclopentylethyl]amino}-8-(3-methylphenyl)-7H-purine-2-carboxylic acid] | 31.4
2 | Cc1cccc(-c2nc3nc(C(=O)O)nc(N[C@H](C)C4CCCCC4)c3n2Cc2ccc(Cl)cc2)c1 [Example 6.4, 7-(4-chlorobenzyl)-6-{[(1R)-1-cyclohexylethyl]amino}-8-(3-methylphenyl)-7H-purine-2-carboxylic acid] | 1030
3 | Cc1cccc(-c2nc3nc(C(=O)O)nc(N[C@H](C)C4CC4)c3n2Cc2ccc(Br)cc2)c1 [Example 6.5, 7-(4-bromobenzyl)-6-{[(1R)-1-cyclopropylethyl]amino}-8-(3-methylphenyl)-7H-purine-2-carboxylic acid] | 234
4 | Cc1cccc(-c2nc3nc(C(=O)O)nc(NC(C)(C)C4CC4)c3n2Cc2ccc(Cl)cc2)c1 [Example 6.6, 7-(4-chlorobenzyl)-6-[(1-cyclopropyl-1-methylethyl)amino]-8-(3-methylphenyl)-7H-purine-2-carboxylic acid] | 1650
5 | Cc1cccc(-c2nc3nc(C(=O)O)nc(N[C@H](C)C4CCC4)c3n2Cc2ccc(Br)cc2)c1 [Example 6.7, 7-(4-bromobenzyl)-6-{[(1R)-1-cyclobutylethyl]amino}-8-(3-methylphenyl)-7H-purine-2-carboxylic acid] | 75.7
6 | Cc1cccc(-c2nc3nc(C(=O)O)nc(NC4CCCCC4C)c3n2Cc2ccc(C(F)(F)F)cc2)c1 (centres unmarked) [Example 6.8, 6-[(2-methylcyclohexyl)amino]-8-(3-methylphenyl)-7-[4-(trifluoromethyl)benzyl]-7H-purine-2-carboxylic acid] | 228
7 | Cc1cccc(-c2nc3nc(C(=O)O)nc(NC4CCCCC4C)c3n2Cc2ccc(Br)cc2)c1 (centres unmarked) [Example 6.9, 7-(4-bromobenzyl)-6-[(2-methylcyclohexyl)amino]-8-(3-methylphenyl)-7H-purine-2-carboxylic acid] | 22.3
8 | Cc1cccc(-c2nc3nc(C(=O)O)nc(NC4CCCCC4C)c3n2Cc2ccc(Br)cc2)c1 (centres unmarked) [Example 6.10, 7-(4-bromobenzyl)-6-[(2-methylcyclohexyl)amino]-8-(3-methylphenyl)-7H-purine-2-carboxylic acid] | 1040
9 | Cc1cccc(-c2nc3nc(C(=O)O)nc(N(C)C(C)C4CC4)c3n2Cc2ccc(Cl)cc2)c1 (centres unmarked) [Example 6.11, 7-(4-chlorobenzyl)-6-[(1-cyclopropylethyl)(methyl)amino]-8-(3-methylphenyl)-7H-purine-2-carboxylic acid] | 1420
10 | O=C(O)c1nc(NCC2CC2)c2c(n1)nc(-c1cccc(Cl)c1)n2Cc1ccc(Cl)cc1 [Example 6.12, 7-(4-chlorobenzyl)-8-(3-chlorophenyl)-6-[(cyclopropylmethyl)amino]-7H-purine-2-carboxylic acid] | 4100
11 | C[C@@H](Nc1nc(C(=O)O)nc2nc(-c3ccc4sccc4c3)n(Cc3ccc(C(F)(F)F)cc3)c12)C1CC1 [Example 6.13, 8-(1-benzothiophen-5-yl)-6-{[(1R)-1-cyclopropylethyl]amino}-7-[4-(trifluoromethyl)benzyl]-7H-purine-2-carboxylic acid] | 16.3
12 | C[C@@H](Nc1nc(C(=O)O)nc2nc(-c3ccc4sccc4c3)n(Cc3ccc(C(F)(F)F)cc3)c12)C1CCC1 [Example 6.14, 8-(1-benzothiophen-5-yl)-6-{[(1R)-1-cyclobutylethyl]amino}-7-[4-(trifluoromethyl)benzyl]-7H-purine-2-carboxylic acid] | 35.3
13 | Cc1cccc(-c2nc3nc(C(=O)O)nc(N[C@H](C)C4CC4)c3n2Cc2ccc(F)c(Cl)c2)c1 [Example 6.15, 7-(3-chloro-4-fluorobenzyl)-6-{[(1R)-1-cyclopropylethyl]amino}-8-(3-methylphenyl)-7H-purine-2-carboxylic acid] | 371
14 | Cc1cccc(-c2nc3nc(C(=O)O)nc(N[C@H](C)C4CC4)c3n2Cc2ccc(Cl)c(Cl)c2)c1 [Example 6.16, 6-{[(1R)-1-cyclopropylethyl]amino}-7-(3,4-dichlorobenzyl)-8-(3-methylphenyl)-7H-purine-2-carboxylic acid] | 462
15 | Cc1cccc(-c2nc3nc(C(=O)O)nc(N[C@H](C)C4CC4)c3n2Cc2ccc(Cl)c(F)c2)c1 [Example 6.17, 7-(4-chloro-3-fluorobenzyl)-6-{[(1R)-1-cyclopropylethyl]amino}-8-(3-methylphenyl)-7H-purine-2-carboxylic acid] | 25.8
16 | Cc1cccc(-c2nc3ncnc(NC(CC(=O)O)C4CC4)c3n2Cc2ccc(C(F)(F)F)cc2)c1 (centres unmarked) [Example 6.18, 3-cyclopropyl-3-({8-(3-methylphenyl)-7-[4-(trifluoromethyl)benzyl]-7H-purin-6-yl}amino)propanoic acid] | 5190

Row | SMILES | IC50 [nM]
17 | Cc1cccc(-c2nc3nc(C(=O)O)nc(NC4CCC(C)CC4)c3n2Cc2ccc(C(F)(F)F)cc2)c1 (centres unmarked) [Example 6.19, 6-[(4-methylcyclohexyl)amino]-8-(3-methylphenyl)-7-[4-(trifluoromethyl)benzyl]-7H-purine-2-carboxylic acid] | 869
18 | Cc1cccc(-c2nc3nc(C(=O)O)nc(NC4CCCC(C)C4)c3n2Cc2ccc(C(F)(F)F)cc2)c1 (centres unmarked) [Example 6.20, 6-[(3-methylcyclohexyl)amino]-8-(3-methylphenyl)-7-[4-(trifluoromethyl)benzyl]-7H-purine-2-carboxylic acid] | 567
19 | Cc1cccc(-c2nc3nc(C(=O)O)nc(NC4CCCC4C)c3n2Cc2ccc(C(F)(F)F)cc2)c1 (centres unmarked) [Example 6.21, 6-[(2-methylcyclopentyl)amino]-8-(3-methylphenyl)-7-[4-(trifluoromethyl)benzyl]-7H-purine-2-carboxylic acid] | 422
20 | Cc1cccc(-c2nc3nc(C(=O)O)nc(NC4CCCC4)c3n2Cc2ccc(C(F)(F)F)cc2)c1 [Example 6.22, 6-(cyclopentylamino)-8-(3-methylphenyl)-7-[4-(trifluoromethyl)benzyl]-7H-purine-2-carboxylic acid] | 649
21 | Cc1cccc(-c2nc3nc(C(=O)O)nc(N4CCCC4)c3n2Cc2ccc(C(F)(F)F)cc2)c1 [Example 6.23, 8-(3-methylphenyl)-6-pyrrolidin-1-yl-7-[4-(trifluoromethyl)benzyl]-7H-purine-2-carboxylic acid] | 8270
22 | Cc1cccc(-c2nc3nc(C(=O)O)nc(NC(C4CC4)C4CC4)c3n2Cc2ccc(C(F)(F)F)cc2)c1 [Example 6.24, 6-[(dicyclopropylmethyl)amino]-8-(3-methylphenyl)-7-[4-(trifluoromethyl)benzyl]-7H-purine-2-carboxylic acid] | 329
23 | Cc1cccc(-c2nc3nc(C(=O)O)nc(NCCc4ccccc4)c3n2Cc2ccc(C(F)(F)F)cc2)c1 [Example 6.25, 8-(3-methylphenyl)-6-[(2-phenylethyl)amino]-7-[4-(trifluoromethyl)benzyl]-7H-purine-2-carboxylic acid] | 5080
24 | Cc1cccc(-c2nc3nc(C(=O)O)nc(N[C@@H](C)c4cccc(Cl)c4)c3n2Cc2ccc(C(F)(F)F)cc2)c1 [Example 6.26, 6-{[(1S)-1-(3-chlorophenyl)ethyl]amino}-8-(3-methylphenyl)-7-[4-(trifluoromethyl)benzyl]-7H-purine-2-carboxylic acid] | 6970
25 | Cc1cccc(-c2nc3nc(C(=O)O)nc(N[C@H](C)c4cccc(Cl)c4)c3n2Cc2ccc(C(F)(F)F)cc2)c1 [Example 6.27, 6-{[(1R)-1-(3-chlorophenyl)ethyl]amino}-8-(3-methylphenyl)-7-[4-(trifluoromethyl)benzyl]-7H-purine-2-carboxylic acid] | 2360
26 | Cc1cccc(-c2nc3nc(C(=O)O)nc(NC4CCCCC4)c3n2Cc2ccc(C(F)(F)F)cc2)c1 [Example 6.28, 6-(cyclohexylamino)-8-(3-methylphenyl)-7-[4-(trifluoromethyl)benzyl]-7H-purine-2-carboxylic acid] | 589
27 | Cc1cccc(-c2nc3nc(C(=O)O)nc(NCc4ccccc4)c3n2Cc2ccc(C(F)(F)F)cc2)c1 [Example 6.29, 6-(benzylamino)-8-(3-methylphenyl)-7-[4-(trifluoromethyl)benzyl]-7H-purine-2-carboxylic acid] | 1770
28 | Cc1cccc(-c2nc3nc(C(=O)O)nc(N[C@H](C)c4ccccc4)c3n2Cc2ccc(C(F)(F)F)cc2)c1 [Example 6.30, 8-(3-methylphenyl)-6-{[(1R)-1-phenylethyl]amino}-7-[4-(trifluoromethyl)benzyl]-7H-purine-2-carboxylic acid] | 1490
29 | Cc1cccc(-c2nc3nc(C(=O)O)nc(N[C@@H](C)c4ccccc4)c3n2Cc2ccc(C(F)(F)F)cc2)c1 [Example 6.31, 8-(3-methylphenyl)-6-{[(1S)-1-phenylethyl]amino}-7-[4-(trifluoromethyl)benzyl]-7H-purine-2-carboxylic acid] | 4300
30 | Cc1cccc(-c2nc3nc(C(=O)O)nc(NC(C)C4CCCC4)c3n2Cc2ccc(C(F)(F)F)cc2)c1 (centres unmarked) [Example 6.32, 6-[(1-cyclopentylethyl)amino]-8-(3-methylphenyl)-7-[4-(trifluoromethyl)benzyl]-7H-purine-2-carboxylic acid] | 373
31 | Cc1cccc(-c2nc3nc(C(=O)O)nc(NC4CCC(C)CC4C)c3n2Cc2ccc(C(F)(F)F)cc2)c1 (centres unmarked) [Example 6.33, 6-[(2,4-dimethylcyclohexyl)amino]-8-(3-methylphenyl)-7-[4-(trifluoromethyl)benzyl]-7H-purine-2-carboxylic acid] | 305
32 | Cc1cccc(-c2nc3nc(C(=O)O)nc(NC4CCC(C)CC4C)c3n2Cc2ccc(C(F)(F)F)cc2)c1 (centres unmarked) [Example 6.34, 6-[(2,4-dimethylcyclohexyl)amino]-8-(3-methylphenyl)-7-[4-(trifluoromethyl)benzyl]-7H-purine-2-carboxylic acid] | 1140
